We go through 13 compounds from US9422235B2, “Sulfonamide derivatives with therapeutic indications” (Pharmos Corporation, priority 2006, dated 2016).

Like-named read-outs stand apart in the source and are kept apart here.

In assay [1] the target is human CB2 receptor (Homo sapiens (Human), UniProt P34972). Put plainly: [35S]GTPγS-binding assay, functional activity at the human CB2 receptor. It counts as biochemical. As for the experimental part: Functional activity of compounds of the invention toward the cannabinoid receptors was determined by stimulation of [^35S]-GTPγS binding using membranes from HEK-293 cells expressing the hCB1 receptor and membranes expressing the hCB2 receptor derived from either Sf9 (PerkinElmer) or from HEK-293 cells. Activities were compared to that of the known cannabinoid full agonist CP55940 (Alexis). The purpose of this experiment is to determine the potency of the compounds of the invention as agonists or antagonists toward each of the receptor tested.
human CB2 receptor, sequence (P34972 whole entry): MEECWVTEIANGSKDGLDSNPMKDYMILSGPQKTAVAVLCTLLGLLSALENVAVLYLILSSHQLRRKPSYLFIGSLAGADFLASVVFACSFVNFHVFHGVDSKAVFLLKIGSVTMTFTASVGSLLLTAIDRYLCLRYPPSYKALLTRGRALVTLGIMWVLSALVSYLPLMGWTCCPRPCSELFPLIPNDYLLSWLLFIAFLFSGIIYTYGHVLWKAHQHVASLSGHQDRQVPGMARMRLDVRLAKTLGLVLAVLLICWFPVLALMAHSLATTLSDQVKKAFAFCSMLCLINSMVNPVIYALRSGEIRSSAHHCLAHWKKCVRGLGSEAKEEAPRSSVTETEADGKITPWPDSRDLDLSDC
[^35]-GTPγS binding reactions were performed at 30° C. in 96-well plates containing 5-10 μg membrane protein suspended in 0.1 ml binding buffer (20 mM HEPES-NaOH, pH 7.4, 5 mM MgCl2, 100 mM NaCt, 0.2% (w/v) bovine serum albumin) supplemented with 50 μM GDP and 0.06 nM-10 μM of the compound being tested. Binding was initiated by the addition of [^35S]GTPγS (0.3 nM final concentration). Incubations were performed for 90 minutes and were terminated by filtration on GF/C filter plates (PerkinElmer). Filters were washed ten times with ice-cold wash buffer (20 mM HEPES-NaOH, pH 7.4, 10 mM sodium pyrophosphate). Non-specific binding was measured in the presence of 15 μM GTPγS.
Assays were performed in duplicates. Data was analyzed by plotting on the X axis the log concentration against percent of specific [^35S]GTPγS binding out of basal [^35S]GTPγS binding on the Y axis, non-linear regression is then performed using GraphPad Prism, version 3.0 (GraphPad, San Diego, Calif.) to calculate the EC50 and Emax of the compound. The EC50 value represents the concentration at which there is 50% [^35S]GTPγS binding and the Emax value the upper plateau of the curve.
CP55940 is a full agonist of the human and rat CB2 receptors. […] Full or partial agonism at the receptor was determined relative to the Emax value of CP55940.

Assay [2] relates to Male Sprague Dawley rats. In words: Thermal analgesic activity in CFA-induced inflammatory acute pain (Plantar test). It counts as in vivo, rat. Conditions: one hour post daily administration, third day of treatment. As to the method: The thermal analgesic effect induced by compounds of the present invention on inflammatory acute pain was assessed. Inflammatory pain and paw edema were induced by intraplantar injection of 50% Complete Freund's Adjuvant (CFA) suspension in the animal hind paw.
Male Sprague Dawley rats (average body weight 200 g, Harlan, Israel) were transiently sedated by placement on dry ice for the duration of the injections. Rats were injected subcutaneously, in the subplantar region of one (right) paw with 0.15 ml of 50% w/v CFA in sterile saline. […] Test compounds were administered i.p. at initial single dose of 10-60 mg/kg (depending on the test compound), and volume dose of 5 ml/kg, 24 hours post CFA injection. Vehicle and Celecoxib treated animals were used as controls. Each treatment group comprised at least six animals.
Prior to, 48 hours post induction of inflammatory pain and one hour after daily drug administration, the animals reaction to pain stimuli was tested by thermal stimulus. The thermal analgesia was assessed using a Plantar test (Ugo Basile). At the end of the study, animals were euthanized.
Results, expressed as percent of baseline value (% reversal) or withdrawal latency, are depicted in FIGS. 9 and 10. […] Results are expressed as mean±SEM for each treatment group and the differences among those groups are analyzed by T-test. […]

In assay [3] the test system is female BALB/c mice. Put plainly: Dextran Sulfate Salt (DSS)-induced acute colitis. It counts as in vivo, mouse. Conditions: for % Survival / Clinical score / Percentage change in body weight: i.p. The source says:
In order to test the activity of compounds of the invention in an animal model of inflammatory bowel disease, female BALB/c mice 9-12 week old (Harlan, Israel) were used for Dextran Sulfate Salt (DSS)-induced acute colitis studies. Mice (ten per treatment group) were provided with a solution of tap water containing 5% DSS (MW. 36000-50000; MP Biomedicals, LLC) ad libitum over an 8 day period. The DSS solution was replenished every other day and switched to tap water at day 8. Body weight was measured daily. The clinical scores combined both macroscopic (diarrhea, body weight, mortality) as well as microscopic (pathological) scores. Diarrhea score in the studies for each animal represented the daily summary of stool consistency (scored as: 0, normal; 1, soft but still formed; 2, very soft; 3, diarrhea) and the presence of blood in stool (scored: 0, None; 1, visible blood traces in stool; 2, signs of blood; 3, rectal bleeding). At the end of experiment animals were euthanized and their colons are examined for signs of pathological damage. The pathological scores, colon length and weight were determined from the cecum to the anus (scored: 0, normal; 1, slight inflammation; 2, moderate inflammation and/or edema; 3, heavy inflammation and/or ulceration and/or edema).
Two compounds were tested in DSS-induced colitis in mice, compounds 4 and 58. […] Results are expressed as mean ± SEM for each treatment group and the differences among those groups are analyzed by T-test. Two crosshatches indicate a p value below 0.01 and three indicate a p value below 0.001. Asterisks denote statistical significant weight loss relative to animal weight in the beginning of the experiment.
Alternatively, compound 58 (30 mg/kg) was administered orally from the first day of DSS administration (day 1) until the end of the experiment (day 10).

In assay [4] the test system is Male Sprague Dawley rats. In words: Chronic inflammatory pain, intra-articular CFA in knee, weight bearing. It counts as in vivo, rat.
[5] abbreviates: Cell line C2-4, Emax of compound divided by Emax of CP55940.
The mark [6] stands for this setting: Cell line C2-4, upper plateau of [35S]GTPγS binding curve.
The mark [7] stands for this setting: read-out: % Activity (relative to CP55,940).
[8] abbreviates: Cell line C2-4, Emax of compound divided by Emax of CP55940, read-out: % Activity (relative to CP55,940).
Where [9] appears, read: Cell line C2-4, upper plateau of [35S]GTPγS binding curve, read-out: Emax (%).

As for “4-(Bicyclo[2.2.1]hept-2-ylamino)-N-cyclopropylmethyl-2-trifluoromethyl-benzenesulfonamide [Compound 58]”, the “% Activity (relative to CP55,940)” value in assay [1] (setting [5]) is given as 40%. Moreover, the “Emax (%)” value in assay [1] (setting [6]) came to 29%. The “reversal of thermal pain threshold (withdrawal latency)” value in assay [2] (30 mg/kg i.p.) was “reversed the pain threshold”. In assay [3] (10 mg/kg), the “% Survival” value is on record as 100%, the Clinical score came out at 4.33 ± 0.22 and the “Percentage change in body weight” value is on record as −12.9 ± 2.6 %. The mortality entry in assay [3] (30 mg/kg orally, day 1 to day 10) was “not observed”. For the same compound, the “clinical score over time” value in assay [3] (30 mg/kg orally, day 1 to day 10, from day 8 until end of experiment) was “statistical significant amelioration”. Besides, the pathological score in assay [3] (30 mg/kg orally, day 1 to day 10, not statistically significant versus vehicle) amounted to 1.9±0.5. In addition, in assay [3] (30 mg/kg), the “% Survival” value worked out at 100%, the Clinical score is 4.58 ± 0.2 and the “Percentage change in body weight” value is listed as −13.9 ± 2.3 %. The “efficacy in DSS-induced colitis (weight loss, clinical signs or gross pathology)” value in assay [3] (administered intraperitoneally) is given as “modest efficacy”.

As for `CCCCCCC(C)(C)c1ccc([C@@H]2C[C@H](O)CC[C@H]2CCCO)c(O)c1` [CP55940, reference compound], the Emax in assay [1] lay within 50 to 70%.

In the case of `O=S(=O)(NCC1CC1)c1ccc(Nc2ccc(Cl)cc2Cl)cc1C(F)(F)F` [Compound 3, N-Cyclopropylmethyl-4-(2,4-dichloro-phenylamino)-2-trifluoromethyl-benzenesulfonamide], the Emax in assay [1] came to 30%; in assay [1] (setting [7]) it was 46%.

`O=S(=O)(NCC1CCCO1)c1ccc(NC2CC3CCC2C3)cc1C(F)(F)F` (stereo not drawn) [Compound 26, 4-(Bicyclo[2.2.1]hept-2-ylamino)-N-(tetrahydro-furan-2-ylmethyl)-2-trifluoromethyl-benzenesulfonamide]: the results for the Emax in assay [1] (setting [8]) and in assay [1] (setting [9]) were 35% and 19%, respectively.

On to `O=S(=O)(NCC1CCOCC1)c1ccc(Nc2ccc(Cl)cc2Cl)cc1C(F)(F)F` [Compound 35, 4-(2,4-Dichloro-phenylamino)-N-(tetrahydro-pyran-4-ylmethyl)-2-trifluoromethyl-benzenesulfonamide], for which the Emax in assay [1] came to 19%; in assay [1] (setting [7]), 35%. Moreover, the “reversal of the CFA induced hypersensitivity (weight bearing)” value in assay [4] (15 mg/kg, b.i.d, three days of administration) is “significant reversal”.

`O=S(=O)(NCC1CCOCC1)c1ccc(NC2CC3CCC2C3)cc1C(F)(F)F` (stereo not drawn) [Compound 41, 4-(Bicyclo[2.2.1]hept-2-ylamino)-N-(tetrahydro-pyran-4-ylmethyl)-2-trifluoromethyl-benzenesulfonamide]: the Emax in assay [1] (setting [8]) was 36%; in assay [1] (setting [9]), 26%. Moreover, the “analgesic effect (% reversal)” value in assay [4] (15 mg/kg b.i.d., day 1 and 2 post administration) is given as 30%.

As for `COc1ccc(Nc2ccc(S(=O)(=O)NCC3CC3)c(C(F)(F)F)c2)c(OC)c1` [Compound 44, N-cyclopropylmethyl-4-(2,4-dimethoxy-phenylamino)-2-trifluoromethyl-benzenesulfonamide], the Emax in assay [1] stood at 5%; in assay [1] (setting [7]), 9.8%.

For the compound `CC(C)(NS(=O)(=O)c1ccc(NC2CC3CCC2C3)cc1C(F)(F)F)C1CC1` (stereo not drawn) [Compound 74, 4-(Bicyclo[2.2.1]hept-2-ylamino)-N-(1-cyclopropyl-1-methyl-ethyl)-2-trifluoromethyl-benzenesulfonamide], the figures for the Emax in assay [1] and in assay [1] (setting [7]) were 30% and 45%, respectively.

`O=S(=O)(NCC1CC1)c1ccc(NC2CCCCCC2)cc1C(F)(F)F` [Compound 87, 4-Cycloheptylamino-N-cyclopropylmethyl-2-trifluoromethyl-benzenesulfonamide]: the Emax in assay [1] stood at 21%; in assay [1] (setting [7]), 29%.

Take `O=S(=O)(NCC1CC1)c1ccc(NC2CCCCCCC2)cc1C(F)(F)F` [Compound 88, 4-Cyclooctylamino-N-cyclopropylmethyl-2-trifluoromethyl-benzenesulfonamide]: the Emax in assay [1] (setting [8]) was determined as 9.8%. In addition, the “Emax (%)” value in assay [1] (setting [6]) was 5%.

Regarding `O=S(=O)(NCC1CC1)c1ccc(NN2CCCCCC2)cc1C(F)(F)F` [Compound 105, 4-(Azepan-1-ylamino)-N-cyclopropylmethyl-2-trifluoromethyl-benzenesulfonamide], the Emax in assay [1] came out at 34%; in assay [1] (setting [7]), 43%.

Take `CC(C)(NS(=O)(=O)c1ccc(NC2CCCCC2)cc1C(F)(F)F)C1CC1` [Compound 108, 4-Cyclohexylamino-N-(1-cyclopropyl-1-methyl-ethyl)-2-trifluoromethyl-benzenesulfonamide]: in assay [1] (setting [8]), the Emax came to 49.3%. For the same compound, the “Emax (%)” value in assay [1] (setting [6]) is listed as 39%.

Turning to “N-Cyclopropylmethyl-4-(piperidin-1-ylamino)-2-trifluoromethyl-benzenesulfonamide [Compound 94]”, the “% Activity (relative to CP55,940)” value in assay [1] (setting [5]) was 30%. Besides, in assay [1] (setting [6]), the “Emax (%)” value came to 20%. Moreover, the “reversal of thermal pain threshold (percent of baseline value, % reversal)” value in assay [2] (60 mg/kg i.p.) is reported as “reversed the pain threshold”.
